Source: patent publication US7132456B2, “MCH receptor antagonists” (Eli Lilly and Company, priority 2002, dated 2006)
Structures can show the parent of a compound that is named as a salt. Where two headings read alike, the source gives them in different places.

How the values were obtained:
human MCHR1 = target: T1, human MCHR1 (Homo sapiens, UniProt Q99705); test: 125I-MCH competitive binding assay on clone 43 membranes (MCHR1 binding); details: competitive binding vs 100 pM 125I-MCH, clone 43 membranes (AV12 cells expressing MCHR1), Ki from IC50 by Cheng-Prusoff, tested in duplicate, read-out: MCHr Binding Ki
T1 construct: The full-length cDNA for human MCHR1 was cloned; expressed in transfected cells; host or cells: AV12 cells previously transfected with Gα15
Procedure: The full-length cDNA for human MCHR1 was cloned from a human adult brain cDNA library (Edge Biosystems, Cat. 38356) by standard polymerase chain reaction (PCR) methodology employing the following primers: sense, 5′-GCCACCATGGACCT GGAAGCCTCGCTGC-3′; anti-sense, 5′-[…]-3′. The PCR reaction was performed in a final volume of 50 μL containing 5 μL of a 10× stock solution of PCR buffer, 1 μL of 10 mM dNTP mixture (200 μM final), 2 μL of 50 mM Mg(SO4) (2 mM final), 0.5 μL of 20 μM solutions of each primer (0.2 μM final), 5 μL of template cDNA containing 0.5 ng DNA, 0.5 μL of Platinum Taq High Fidelity DNA polymerase (Gibco Life Technologies) and 36 μL of H2O. PCR amplification was performed on a Perkin Elmer 9600 thermocycler. After denaturation for 90 sec at 94° C., the amplification sequence consisting of 94° C. for 25 sec, 55° C. for 25 sec and 72° C. for 2 min was repeated 30 times, followed by a final elongation step at 72° C. for 10 min. The desired PCR product (1.1 Kb) was confirmed by agarose gel electrophoresis and the band was extracted from the gel by Geneclean (Bio101) following the manufacturer's instructions. Following extraction, the cDNA fragment was cloned into pCR2.1-TOPO plasmid (Invitrogen) to confirm the identity and sequence.
In order to generate cell lines stably expressing MCHR1, the insert was then subcloned into the Xba I and Not I sites of pcDNA(+)-3.1-neomycin (Invitrogen). After purification by Qiagen Maxi-prep kit (QIAGEN, Inc.), the plasmid was transfected by Fugene 6 (Roche Applied Science) into AV12 cells that had been previously transfected with the promiscuous G protein Gα15. The transfected cells were selected by G418 (800 μg/mL) for 10–14 days and single colonies were isolated from culture plates. The G418-resistant colonies were further selected for MCHR1 expression by measuring MCH-stimulated Ca^2+ transients with a fluorometric imaging plate reader (FLIPR, Molecular Devices).
Both the ^125I-MCH binding and functional GTPγ^35S binding assays employed membranes isolated from a clone designated as clone 43. Typically, cells from 20 confluent T225 flasks were processed by washing the monolayers in cold phosphate-buffered saline (PBS), scraping the cells into same and re-suspending the cell pellet in 35 mL of 250 mM Sucrose, 50 mM HEPES, pH 7.5, 1 mM MgCl2, 24 μg/mL DNase I, and protease inhibitors (1 Complete® tablet, per 50 ml of buffer prepared, Roche Diagnostics). After incubation on ice for 5 min, cells were disrupted with 20–25 strokes of a Teflon/Glass homogenizer attached to an overhead motorized stirrer, and the homogenate was centrifuged at 40,000 rpm in Beckman Type 70.1 Ti rotor. The pellets were re-suspended in 250 mM Sucrose, 50 mM HEPES, pH 7.5, 1.5 mM CaCl2, 1 mM MgSO4 and protease inhibitors by Teflon/Glass homogenization to achieve a protein concentration of ˜3–5 mg/ml (Pierce BCA assay with Bovine serum albumin as standard). Aliquots were stored at −70° C.
Binding of compounds to MCHR1 was assessed in a competitive binding assay employing ^125I-MCH, compound and clone 43 membranes. Briefly, assays are carried out in 96-well Costar 3632 white opaque plates in a total volume of 200 μl containing 25 mM HEPES, pH 7.5, 10 mM CaCl2, 2 mg/ml bovine serum albumin, 0.5% dimethyl sulfoxide (DMSO), 4 μg of clone 43 membranes, 100 pM ^125I-MCH (NEN), 1.0 mg of wheat germ agglutinin scintillation proximity assay beads (WGA-SPA beads, Amersham) and a graded dose of test compound. Non-specific binding is assessed in the presence of 1 μM unlabeled MCH. Bound ^125I-MCH is determined by placing sealed plates in a Microbeta Trilux (Wallac) and counting after a 5 hr delay.
IC50 values (defined as the concentration of test compound required to reduce specific binding of ^125I-MCH by 50%) are determined by fitting the concentration-response data to a 4-parameter model (max response, min response, Hill coefficient, IC50) using Excel. […]

T1 sequence (Q99705 whole entry): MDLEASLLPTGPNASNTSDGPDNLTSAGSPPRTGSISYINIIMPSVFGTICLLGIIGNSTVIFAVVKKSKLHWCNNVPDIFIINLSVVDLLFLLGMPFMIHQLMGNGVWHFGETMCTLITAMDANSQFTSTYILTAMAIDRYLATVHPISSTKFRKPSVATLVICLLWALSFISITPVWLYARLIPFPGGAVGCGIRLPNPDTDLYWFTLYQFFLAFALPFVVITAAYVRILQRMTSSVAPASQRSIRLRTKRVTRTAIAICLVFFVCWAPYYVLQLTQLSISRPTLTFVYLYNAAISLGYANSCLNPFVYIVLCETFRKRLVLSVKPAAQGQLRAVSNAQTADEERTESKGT

Compound	melting point	Ki (human MCHR1)	Ki (human MCHR1; oxalate)
CN(C)CCNC(=O)c1ccccc1-c1cccc(CSCCOc2ccccc2)c1.Cl	150 to 153 °C	–	–
CN(C)CCNC(=O)c1ccccc1-c1ccccc1CSCCOc1ccccc1.O=C(O)C(=O)O	46 to 50 °C	–	–
CN(C)CCCCNC(=O)c1ccccc1-c1ccccc1CSCCOc1ccccc1.O=C(O)C(=O)O	64 to 70 °C	–	–
CN(C)CCNC(=O)c1ccccc1-c1ccc(CSCCOc2ccccc2)cc1.O=C(O)C(=O)O	109 to 113 °C	–	–
2′-(2-phenoxy-ethylsulfanylmethyl)-biphenyl-3-carboxylic acid (4-dimethylamino-butyl)-amide oxalate [Example 22]	–	10.8 µM	–
4′-(2-phenoxy-ethylsulfanylmethyl)-biphenyl-4-carboxylic acid (2-dimethylamino-ethyl)-amide oxalate [Example 4]	–	–	11.7 µM
CN(C)CCCNC(=O)c1ccc(-c2ccc(CSCCOc3ccccc3)cc2)cc1 (as salt: hydrochloride)	112 to 115 °C	–	–
CN(C)CCCNC(=O)c1cccc(-c2ccc(CSCCOc3ccccc3)cc2)c1.O=C(O)C(=O)O [Example 1, 4′-(2-phenoxy-ethylsulfanylmethyl)-biphenyl-3-carboxylic acid(3-dimethylamino-propyl)-amide oxalate]	132 to 133.5 °C	5.04 µM	–
CN(C)CCNC(=O)c1cccc(-c2ccc(CSCCOc3ccccc3)cc2)c1.O=C(O)C(=O)O [Example 2, 4′-(2-phenoxy-ethylsulfanylmethyl)-biphenyl-3-carboxylic acid (2-dimethylamino-ethyl)-amide oxalate]	88 to 93 °C	7.52 µM	–
CN(C)CCCCNC(=O)c1cccc(-c2ccc(CSCCOc3ccccc3)cc2)c1.O=C(O)C(=O)O [Example 3, 4′-(2-phenoxy-ethylsulfanylmethyl)-biphenyl-3-carboxylic acid (4-dimethylamino-butyl)-amide oxalate]	144 to 147 °C	10.7 µM	–
CN(C)CCCCNC(=O)c1ccc(-c2ccc(CSCCOc3ccccc3)cc2)cc1.O=C(O)C(=O)O [Example 6, 4′-(2-phenoxy-ethylsulfanylmethyl)-biphenyl-4-carboxylic acid (4-dimethylamino-butyl)-amide oxalate]	142 to 147 °C	10.1 µM	–
CN(C)CCCCNC(=O)c1ccccc1-c1ccc(CSCCOc2ccccc2)cc1.O=C(O)C(=O)O [Example 9, 4′-(2-phenoxy-ethylsulfanylmethyl)-biphenyl-2-carboxylic acid (4-dimethylamino-butyl)-amide oxalate]	72 to 76 °C	16.3 µM	–
CN(C)CCCNC(=O)c1cccc(-c2cccc(CSCCOc3ccccc3)c2)c1.O=C(O)C(=O)O [Example 13, 3′-(2-phenoxy-ethylsulfanylmethyl)-biphenyl-3-carboxylic acid (3-dimethylamino-propyl)-amide oxalate]	51 to 53 °C	8.76 µM	–
CN(C)CCNC(=O)c1ccc(-c2cccc(CSCCOc3ccccc3)c2)cc1 [Example 14, 3′-(2-phenoxy-ethylsulfanylmethyl)-biphenyl-4-carboxylic acid (2-dimethylamino-ethyl)-amide]	75 to 78 °C	1.47 µM	–
CN(C)CCCNC(=O)c1ccc(-c2cccc(CSCCOc3ccccc3)c2)cc1.O=C(O)C(=O)O [Example 15, 3′-(2-phenoxy-ethylsulfanylmethyl)-biphenyl4-carboxylic acid (3-dimethylamino-propyl)-amide oxalate]	133 to 137 °C	1.95 µM	–
CN(C)CCCCNC(=O)c1ccc(-c2cccc(CSCCOc3ccccc3)c2)cc1.O=C(O)C(=O)O [Example 16, 3′-(2-phenoxy-ethylsulfanylmethyl)-biphenyl4-carboxylic acid (4-dimethylamino-butyl)-amide oxalate]	85 to 89 °C	8.96 µM	–
CN(C)CCNC(=O)c1cccc(-c2ccccc2CSCCOc2ccccc2)c1.O=C(O)C(=O)O [Example 20, 2′-(2-phenoxy-ethylsulfanylmethyl)-biphenyl-3-carboxylic acid (2-dimethylamino-ethyl)-amide oxalate]	96 to 100 °C	11.4 µM	–
CN(C)CCCNC(=O)c1cccc(-c2ccccc2CSCCOc2ccccc2)c1.O=C(O)C(=O)O [Example 21, 2′-(2-phenoxy-ethylsulfanylmethyl)-biphenyl-3-carboxylic acid (3-dimethylamino-propyl)-amide oxalate]	97 to 100 °C	8.55 µM	–
CN(C)CCNC(=O)c1ccc(-c2ccccc2CSCCOc2ccccc2)cc1 [Example 23, 2′-(2-phenoxy-ethylsulfanylmethyl)-biphenyl4-carboxylic acid (2-dimethylamino-ethyl)-amide]	93 to 96 °C	7.2 µM	–
CN(C)CCCNC(=O)c1ccc(-c2ccccc2CSCCOc2ccccc2)cc1 [Example 24, 2′-(2-phenoxy-ethylsulfanylmethyl)-biphenyl4-carboxylic acid (3-dimethylamino-propyl)-amide]	98 to 100 °C	6.13 µM	–
CN(C)CCCCNC(=O)c1ccc(-c2ccccc2CSCCOc2ccccc2)cc1 [Example 25, 2′-(2-phenoxy-ethylsulfanylmethyl)-biphenyl4-carboxylic acid (4-dimethylamino-butyl)-amide]	–	6.89 µM	–
